PubChem BioAssay (NCI)
Where “and” joins values, the source holds several entries; their conditions need not be identical. Identical values can stand only once.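 Each compound was tested at five concentrations against cells in 96-well plates for 48 hours. GI50 marks 50% less growth. TGI marks complete inhibition of growth.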

How the values were obtained:
Experiment in all cases: growth of human tumour cells (NCI), 48 h
A549 NSCLC = system: A549 NSCLC
HT29 colon = system: HT29 colon
TK-10 renal = system: TK-10 renal
786-0 renal = system: 786-0 renal
CCRF-CEM leukemia = system: CCRF-CEM leukemia
SK-MEL-28 melanoma = system: SK-MEL-28 melanoma
DU-145 prostate = system: DU-145 prostate
RPMI-8226 leukemia = system: RPMI-8226 leukemia
UACC-257 melanoma = system: UACC-257 melanoma
LOX IMVI melanoma = system: LOX IMVI melanoma

SMILES	GI50 (A549 NSCLC)	TGI (A549 NSCLC)	GI50 (HT29 colon)	TGI (HT29 colon)	GI50 (TK-10 renal)	TGI (TK-10 renal)	GI50 (786-0 renal)	TGI (786-0 renal)	GI50 (CCRF-CEM leukemia)	TGI (CCRF-CEM leukemia)	GI50 (SK-MEL-28 melanoma)	TGI (SK-MEL-28 melanoma)	GI50 (DU-145 prostate)	TGI (DU-145 prostate)	GI50 (RPMI-8226 leukemia)	TGI (RPMI-8226 leukemia)	GI50 (UACC-257 melanoma)	TGI (UACC-257 melanoma)	GI50 (LOX IMVI melanoma)	TGI (LOX IMVI melanoma)
O=[N+]([O-])c1ccc(N2CCOCC2)c2c1no[n+]2[O-]	1.9 µM	6.28 µM	1.04 µM	2.8 µM	3.85 µM	16.7 µM	2.12 µM	6 µM	0.728 µM	3.86 µM	4.32 µM	16 µM	1.42 µM	5.76 µM	1.51 µM	4.09 µM	2.76 µM	10.7 µM	0.675 µM	2.13 µM
N#CCCN1C/C(=C/c2ccc(Cl)cc2)C(=O)/C(=C/c2ccc(Cl)cc2)C1	1.89 µM	10.4 µM	0.238 µM	0.574 µM	2.08 µM	4.86 µM	0.868 µM	2.77 µM	0.396 µM	2.88 µM	1.91 µM	3.9 µM	1.9 µM	4.2 µM	0.255 µM	0.795 µM	2.05 µM	4.38 µM	0.303 µM	1.13 µM
O=C1c2sccc2-c2cccc3cccc1c23 (tested in a mixture with another compound)		16.8 µM		15.2 µM		22.6 µM		> 100 µM		12.8 µM		> 100 µM		7.03 µM		0.668 µM		38.9 µM		18.2 µM
OC(C#Cc1ccccc1)(c1ccccc1)c1ccccc1		52.9 µM		78.4 µM		77.4 µM		> 100 µM		35.3 µM		> 100 µM		> 100 µM		47.4 µM		> 100 µM		38 µM
CCCCCCNC(=O)Oc1ccc(/C(=C(\C)c2ccc(Cl)cc2)c2ccc(OCCN3CCCCC3)cc2)cc1	4.73 µM	10.5 µM	1.11 µM	4.02 µM	5.79 µM	12.2 µM	1.93 µM	6.41 µM	3.2 µM	33.3 µM	4.34 µM	9.34 µM	6.26 µM	16.4 µM	1.84 µM	9.68 µM	4.13 µM	9.98 µM	4.83 µM	9.41 µM
C=CCN1CC(=O)N2[C@@H](Cc3ccc(O)cc3F)C(=O)N(Cc3cccc(N4CC(N5CCN(CC)CC5)C4)n3)C[C@@H]2N1C(=O)NCc1ccccc1	0.0412 µM	> 100 µM	0.0537 µM	16.2 µM	0.16 µM	> 100 µM	0.173 µM	> 100 µM	0.0398 µM	> 100 µM	0.0405 µM	> 100 µM	0.0844 µM	> 100 µM	0.05 µM	26.2 µM	0.0648 µM	12.9 µM	0.0339 µM	0.584 µM
COc1ccc(/C=C(\C#N)n2nnc3c(F)cccc32)cc1	0.78 µM	> 100 µM	0.286 µM		2.73 µM	29 µM	0.607 µM	> 51.2 µM	0.311 µM	> 100 µM	1.28 µM	> 100 µM	0.503 µM	> 40.2 µM	0.409 µM	> 100 µM	1.16 µM	> 100 µM	0.493 µM	16.6 µM
COc1cc2nc(-c3cc(F)ccc3O)nc(N[C@@H]3CNC[C@H]3C(C)(C)O)c2cc1OC	1.74 µM	3.51 µM	2 µM	3.85 µM	1.94 µM	5.68 µM	1.44 µM	2.92 µM	2.29 µM	7.3 µM	1.86 µM	3.41 µM	1.51 µM	2.96 µM	2.15 µM	5.14 µM	1.69 µM	3.15 µM	1.46 µM	2.87 µM
Cn1cc(C2=C(c3cccc(OC[C@@H](O)CO)c3)C(=O)NC2=O)c2ccccc21	> 25 µM	> 25 µM	> 25 µM	> 25 µM	> 25 µM	> 25 µM	14 µM	> 25 µM	> 22.5 µM	> 25 µM	> 25 µM	> 25 µM	> 25 µM	> 25 µM	> 25 µM	> 25 µM	> 25 µM	> 25 µM	14.8 µM	> 25 µM
Cc1cc[n+]2c(c1)-c1cc(C)cc[n+]1CC2		> 100 µM		> 100 µM		> 100 µM		> 100 µM		> 100 µM		> 100 µM		> 100 µM		> 100 µM		> 100 µM		> 100 µM
C[C@]12CC[C@@H]3c4cc(OC(F)F)c(OS(N)(=O)=O)cc4CC[C@H]3[C@@H]1CC[C@@H]2O	1.75 µM	> 88.2 µM	0.371 µM	13.9 µM	17 µM	> 77.2 µM	0.621 µM	29.1 µM	0.398 µM	> 100 µM	1.43 µM	24.6 µM	0.49 µM	> 100 µM	0.449 µM	21.9 µM	3.76 µM	25.8 µM	0.428 µM	15.3 µM
Oc1cccc2ccc(N/N=C/c3cc(CN4CCOCC4)c(O)c4ncccc34)nc12	0.0245 µM	1.23 µM	0.324 µM	5.92 µM	0.0497 µM	13.5 µM	0.0444 µM	3.75 µM	0.0391 µM	9.95 µM	0.0634 µM	6.19 µM	0.0645 µM	6.22 µM	0.0154 µM	10.5 µM	0.0368 µM	0.44 µM	0.0426 µM	1.41 µM
Cc1cc(C)nc(SC2=C(Nc3cc(Cl)ccc3O)C(=O)N(Cc3ccccc3)C2=O)n1	30.7 µM	> 160 µM	33.8 µM	65 µM	53.9 µM	> 160 µM	14.7 µM	85.2 µM	7.38 µM	124 µM	42.3 µM	148 µM	39 µM	108 µM	3.57 µM	25.7 µM	32.5 µM	102 µM	27.2 µM	89.4 µM
NS(=O)(=O)c1ccc(-c2cc3ccncc3cc2OCc2ccccc2)cc1	8.59 µM	> 25 µM	> 16.4 µM	> 25 µM	> 23.1 µM	> 25 µM	> 19.8 µM	> 25 µM	> 17.7 µM	> 25 µM	20.6 µM	> 25 µM	16.4 µM	> 25 µM	> 18.2 µM	> 25 µM	> 25 µM	> 25 µM	> 22.6 µM	> 25 µM
COC1C(N)C(OC2C(Oc3cccc4c(O)c5c(=O)oc6ccc(C)c7c(=O)oc(c34)c5c67)OC(C)C(O)C2(C)O)OC(C)C1O (centres undefined)		1.49 µM		0.436 µM		1.27 µM		0.36 µM		3.66 µM		0.34 µM		1.33 µM		12.4 µM		0.277 µM		0.28 µM
CCc1cccc(C)c1NC(=O)c1sc2nc3c(cc2c1N)C(=O)CCC3	0.652 µM	> 100 µM	0.411 µM	2.3 µM	0.774 µM	79.6 µM	0.734 µM	> 100 µM	0.407 µM	> 35.4 µM	1.09 µM	> 100 µM	0.514 µM	> 100 µM	1.06 µM	> 24 µM	12.5 µM	76.1 µM	0.742 µM	> 100 µM
Cc1cc(N=Nc2ccccc2C)ccc1N	3.42 µM	17.1 µM and 20.3 µM		33.3 µM and 38.2 µM	15.5 µM	49.3 µM and 72 µM	2.96 µM	27 µM and 15.8 µM	0.435 µM	> 100 µM		44.3 µM	9.35 µM	27.2 µM	1.69 µM	34.5 µM	20.2 µM	38 µM and 44.9 µM	13.9 µM	25 µM and 28.9 µM
Oc1c(I)cc(I)c2cccnc12	5.67 µM	> 100 µM	8.91 µM	> 100 µM	1.68 µM	20.2 µM	7.14 µM	25.4 µM	6.95 µM	> 100 µM	13.2 µM	> 100 µM	8.25 µM	58 µM	6.96 µM	> 100 µM	3.53 µM	35.5 µM	5.13 µM	89.2 µM
OCCNC1c2cc(Cl)ccc2-c2c(Cl)cc(Cl)cc21 (centres undefined)		> 100 µM		> 100 µM		> 100 µM		> 100 µM		47.4 µM		> 100 µM		> 100 µM		> 100 µM		> 100 µM		> 100 µM
CC1OC(OC2C(O)CC(OC3C(O)CC(OC4CCC5(C)C(CCC6C5CC(O)C5(C)C(C7=CC(=O)OC7)CCC65O)C4)OC3C)OC2C)CC(O)C1O (centres undefined)	0.0187 µM	0.0356 µM	0.0417 µM	0.154 µM	0.0295 µM	0.087 µM	0.041 µM	0.162 µM	0.0358 µM	0.245 µM	0.152 µM	0.302 µM	0.0308 µM	0.0903 µM	0.0921 µM		0.126 µM	0.256 µM	0.0428 µM	0.164 µM
CC(=O)NCc1cccc(C#Cc2cncnc2Nc2ccc(OCc3cccc(F)c3)c(Cl)c2)c1	6.47 µM	> 25 µM	9.19 µM	> 25 µM	1.97 µM	> 20.2 µM	10.7 µM	> 25 µM	13.4 µM	> 25 µM	19.8 µM	> 25 µM	10.1 µM	> 25 µM	15.4 µM	> 25 µM	12.3 µM	> 25 µM	9.44 µM	> 25 µM
CC(C)(O)CNc1nc(Nc2ccnc(C(F)(F)F)c2)nc(-c2cccc(C(F)(F)F)n2)n1	19.5 µM	39.4 µM	17.1 µM	41.2 µM	26.6 µM	82.4 µM	18.6 µM	78.5 µM	21.3 µM	73.9 µM	17.8 µM	36.2 µM	21.6 µM	67.8 µM	18.5 µM	56.1 µM	21.7 µM	43.6 µM	17.3 µM	32.6 µM
CN(CCNCc1ccccn1)CCNCc1ccccn1	2.95 µM	8.07 µM	2.79 µM	7.86 µM	2.19 µM	6.94 µM	1.8 µM	3.57 µM	3.87 µM	> 100 µM	2.64 µM	8.17 µM	3.6 µM	12.4 µM	3.41 µM	67.6 µM	1.97 µM	3.85 µM	2.48 µM	6.88 µM
COC(=O)c1cncc(/C=C/c2c(C)cc(O)cc2C)c1	> 17.5 µM	> 25 µM	> 15.4 µM	> 25 µM	> 25 µM	> 25 µM	9.42 µM	> 25 µM	6.77 µM	> 25 µM	> 12.7 µM	24.8 µM	13.6 µM	> 25 µM	9.03 µM	> 25 µM	14.6 µM	> 25 µM	7.41 µM	> 18 µM
O=C(O)Cc1cccnc1		> 100 µM		> 100 µM		> 100 µM		> 100 µM		> 100 µM		> 100 µM		> 100 µM		> 100 µM		> 100 µM		> 100 µM
COC(=O)CCCCC(=O)c1c(C)[nH]c(/C=C2\N=C(c3ccc[nH]3)C=C2OC)c1C	1.25 µM	3.28 µM	0.198 µM	1.41 µM	2.06 µM	6.38 µM	0.437 µM	1.61 µM	0.159 µM	2.32 µM	1.17 µM	2.47 µM	0.482 µM	1.81 µM	0.428 µM	2.34 µM	1.73 µM	3.33 µM	0.0416 µM	0.135 µM
C/C(=C\c1cnc(C)s1)[C@@H]1C[C@@H]2O[C@@H]2CCC[C@H](C)[C@H](O)[C@@H](C)C(=O)C(C)(C)[C@@H](O)CC(=O)O1	< 0.01 µM	> 100 µM	< 0.01 µM	> 100 µM	0.936 µM	> 100 µM	< 0.01 µM	> 100 µM	< 0.01 µM	> 100 µM	> 100 µM	> 100 µM	< 0.01 µM	> 100 µM	< 0.01 µM	> 100 µM			< 0.01 µM	> 100 µM
